# Experimental data: BindingDB's records for doi:10.3109/14756366.2012.663363 (Sun Yat-Sen University, 2013)
# Legend:
# [1] = target: Carboxylic ester hydrolase (Equus caballus, UniProt Q9N1N9); assay: In Vitro AChE and BuChE Inhibition Assays; settings: pH 8
# Method: (§1) Enzyme solutions were prepared to give 2 units/mL in 2 mL aliquots. […] The substrate was added to the assay medium containing enzyme, buffer and DTNB with inhibitor after 15 min of incubation time.
# [2] = target: Acetylcholinesterase (Electrophorus electricus, UniProt O42275); assay: In Vitro AChE and BuChE Inhibition Assays; settings: pH 8
# Sequence of Acetylcholinesterase (O42275 whole entry): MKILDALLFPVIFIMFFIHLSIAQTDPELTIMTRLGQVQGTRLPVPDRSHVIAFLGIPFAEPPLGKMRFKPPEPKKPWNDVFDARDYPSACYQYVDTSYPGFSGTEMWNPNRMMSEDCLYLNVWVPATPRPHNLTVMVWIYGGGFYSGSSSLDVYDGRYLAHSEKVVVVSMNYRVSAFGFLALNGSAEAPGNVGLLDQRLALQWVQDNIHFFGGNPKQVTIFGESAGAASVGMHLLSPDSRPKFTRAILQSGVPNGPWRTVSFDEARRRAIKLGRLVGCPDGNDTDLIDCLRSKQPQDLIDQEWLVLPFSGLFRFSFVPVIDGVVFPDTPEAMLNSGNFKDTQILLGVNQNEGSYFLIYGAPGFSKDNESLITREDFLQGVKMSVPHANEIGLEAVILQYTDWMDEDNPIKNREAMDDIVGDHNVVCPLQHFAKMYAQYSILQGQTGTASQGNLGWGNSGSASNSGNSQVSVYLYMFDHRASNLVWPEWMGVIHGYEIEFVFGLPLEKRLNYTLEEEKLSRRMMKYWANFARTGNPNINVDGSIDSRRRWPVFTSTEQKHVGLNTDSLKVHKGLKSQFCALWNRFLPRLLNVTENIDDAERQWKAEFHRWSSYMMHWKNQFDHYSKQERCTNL
# Method: as §1
# Sequence of Carboxylic ester hydrolase (Q9N1N9 whole entry): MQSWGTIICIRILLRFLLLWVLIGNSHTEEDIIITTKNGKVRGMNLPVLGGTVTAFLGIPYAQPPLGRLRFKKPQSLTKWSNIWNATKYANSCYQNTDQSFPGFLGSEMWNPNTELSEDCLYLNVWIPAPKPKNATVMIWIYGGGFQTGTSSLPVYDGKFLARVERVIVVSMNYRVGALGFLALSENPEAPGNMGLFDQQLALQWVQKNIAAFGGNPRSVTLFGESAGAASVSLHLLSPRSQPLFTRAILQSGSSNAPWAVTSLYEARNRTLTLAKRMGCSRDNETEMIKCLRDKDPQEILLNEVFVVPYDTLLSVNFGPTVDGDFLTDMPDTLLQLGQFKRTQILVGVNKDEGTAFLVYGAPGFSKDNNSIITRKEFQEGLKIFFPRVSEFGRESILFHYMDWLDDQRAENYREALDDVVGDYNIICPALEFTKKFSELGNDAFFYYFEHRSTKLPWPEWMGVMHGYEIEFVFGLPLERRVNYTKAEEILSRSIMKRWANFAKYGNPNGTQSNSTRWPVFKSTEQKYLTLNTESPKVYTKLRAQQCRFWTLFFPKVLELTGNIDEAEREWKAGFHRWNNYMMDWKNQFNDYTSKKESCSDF
Structure (SMILES),IC50 [1] [µM],IC50 [2] [µM]
O=c1[nH]c(-c2cc3ccccc3[nH]2)nc2ccccc12 [2-(2-Indolyl-)-4(3H)-quinazolines (2IQ)],> 10,> 10
"CN(C)CCCNc1nc(-c2cc3ccccc3[nH]2)nc2ccccc12 [N1-(2-(1H-indol-2-yl)quinazolin-4-yl)-N3,N3-dimethylpropane-1,3-diamine (9a)]",> 10,> 10
"CN1CCN(CC(=O)Nc2ccc3nc(-c4cc5ccccc5[nH]4)[nH]c(=O)c3c2)CC1 [N-(2-(1H-indol-2-yl)-4-oxo-3,4-dihydroquinazolin-6-yl)-2-(4-methylpiperazin-1-yl)acetamide (3e)]",> 10,> 10
"CCN(CC)CC(=O)Nc1ccc2nc(-c3cc4ccccc4[nH]3)[nH]c(=O)c2c1 [N-(2-(1H-indol-2-yl)-4-oxo-3,4-dihydroquinazolin-6-yl)-2-(diethylamino)acetamide (3a)]",14.8,0.503
"O=C(CN1CCCC1)Nc1ccc2nc(-c3cc4ccccc4[nH]3)[nH]c(=O)c2c1 [N-(2-(1H-indol-2-yl)-4-oxo-3,4-dihydroquinazolin-6-yl)-2-(pyrrolidin-1-yl)acetamide (3b)]",3.1,0.327
"O=C(CN1CCCCC1)Nc1ccc2nc(-c3cc4ccccc4[nH]3)[nH]c(=O)c2c1 [N-(2-(1H-indol-2-yl)-4-oxo-3,4-dihydroquinazolin-6-yl)-2-(piperidin-1-yl)acetamide (3c)]",10.2,0.148
"O=C(CCN1CCCC1)Nc1ccc2nc(-c3cc4ccccc4[nH]3)[nH]c(=O)c2c1 [N-(2-(1H-indol-2-yl)-4-oxo-3,4-dihydroquinazolin-6-yl)-3-(pyrrolidin-1-yl)propanamide (3g)]",0.403,0.1
"CCN(CC)CCCNc1nc(-c2cc3ccccc3[nH]2)nc2ccccc12 [N1-(2-(1H-indol-2-yl)quinazolin-4-yl)-N3,N3-diethylpropane-1,3-diamine (9b)]",> 10,> 10
"CN1CCN(CCC(=O)Nc2ccc3nc(-c4cc5ccccc5[nH]4)[nH]c(=O)c3c2)CC1 [N-(2-(1H-indol-2-yl)-4-oxo-3,4-dihydroquinazolin-6-yl)-3-(4-methylpiperazin-1-yl)propanamide (3j)]",> 10,> 10
"O=C(CN1CCOCC1)Nc1ccc2nc(-c3cc4ccccc4[nH]3)[nH]c(=O)c2c1 [N-(2-(1H-indol-2-yl)-4-oxo-3,4-dihydroquinazolin-6-yl)-2-morpholinoacetamide (3d)]",32.2,2.02
"O=C(CCN1CCOCC1)Nc1ccc2nc(-c3cc4ccccc4[nH]3)[nH]c(=O)c2c1 [N-(2-(1H-indol-2-yl)-4-oxo-3,4-dihydroquinazolin-6-yl)-3-morpholinopropanamide (3i)]",51.6,1.26
"CCN(CC)CCC(=O)Nc1ccc2nc(-c3cc4ccccc4[nH]3)[nH]c(=O)c2c1 [N-(2-(1H-indol-2-yl)-4-oxo-3,4-dihydroquinazolin-6-yl)-3-(diethylamino)propanamide (3f)]",2.43,0.276
"O=C(CCN1CCCCC1)Nc1ccc2nc(-c3cc4ccccc4[nH]3)[nH]c(=O)c2c1 [N-(2-(1H-indol-2-yl)-4-oxo-3,4-dihydroquinazolin-6-yl)-3-(piperidin-1-yl)propanamide (3h)]",7.32,0.021
